Where two headings read alike, the source gives them in different places.
Legend:
GV sPLA2 = biological target: T1, GV sPLA2 (Homo sapiens, UniProt P39877); details: cited from earlier work
T1 sequence (P39877 21-138): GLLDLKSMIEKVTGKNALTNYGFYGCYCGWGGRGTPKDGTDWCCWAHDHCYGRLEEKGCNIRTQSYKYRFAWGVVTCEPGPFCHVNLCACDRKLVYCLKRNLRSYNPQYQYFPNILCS

GVIA iPLA2 = biological target: T2, GVIA iPLA2 (Homo sapiens, UniProt O60733); details: cited from earlier work
T2 sequence (O60733 1-806): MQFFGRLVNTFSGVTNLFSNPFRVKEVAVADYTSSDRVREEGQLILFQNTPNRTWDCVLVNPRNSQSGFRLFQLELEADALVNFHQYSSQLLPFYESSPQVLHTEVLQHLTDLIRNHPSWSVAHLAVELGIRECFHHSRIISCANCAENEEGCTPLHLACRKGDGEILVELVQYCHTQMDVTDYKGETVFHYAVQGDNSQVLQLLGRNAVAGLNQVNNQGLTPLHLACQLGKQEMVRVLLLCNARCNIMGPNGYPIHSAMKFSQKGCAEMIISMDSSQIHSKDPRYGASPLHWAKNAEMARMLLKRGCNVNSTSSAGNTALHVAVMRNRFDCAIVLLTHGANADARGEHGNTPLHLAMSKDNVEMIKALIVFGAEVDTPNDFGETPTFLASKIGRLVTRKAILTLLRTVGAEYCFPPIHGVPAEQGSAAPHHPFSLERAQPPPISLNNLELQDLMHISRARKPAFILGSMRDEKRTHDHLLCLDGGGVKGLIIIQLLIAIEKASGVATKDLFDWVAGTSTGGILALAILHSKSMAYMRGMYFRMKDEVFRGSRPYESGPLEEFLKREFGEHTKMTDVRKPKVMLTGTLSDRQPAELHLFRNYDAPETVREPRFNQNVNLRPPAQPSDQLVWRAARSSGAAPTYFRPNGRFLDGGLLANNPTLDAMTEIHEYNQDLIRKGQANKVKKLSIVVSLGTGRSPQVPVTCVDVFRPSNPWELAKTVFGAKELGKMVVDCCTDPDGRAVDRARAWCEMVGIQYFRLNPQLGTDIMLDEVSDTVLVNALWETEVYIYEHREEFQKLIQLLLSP

[1] = tested on: Ca2+-independent group VI iPLA2; details: cited from earlier work
human platelets = details: read-out: IC50, arachidonic acid mobilization, cited from earlier work
GIVA cPLA2 = biological target: T3, GIVA cPLA2 (Homo sapiens, UniProt P47712); details: cited from earlier work
T3 sequence (P47712 1-749): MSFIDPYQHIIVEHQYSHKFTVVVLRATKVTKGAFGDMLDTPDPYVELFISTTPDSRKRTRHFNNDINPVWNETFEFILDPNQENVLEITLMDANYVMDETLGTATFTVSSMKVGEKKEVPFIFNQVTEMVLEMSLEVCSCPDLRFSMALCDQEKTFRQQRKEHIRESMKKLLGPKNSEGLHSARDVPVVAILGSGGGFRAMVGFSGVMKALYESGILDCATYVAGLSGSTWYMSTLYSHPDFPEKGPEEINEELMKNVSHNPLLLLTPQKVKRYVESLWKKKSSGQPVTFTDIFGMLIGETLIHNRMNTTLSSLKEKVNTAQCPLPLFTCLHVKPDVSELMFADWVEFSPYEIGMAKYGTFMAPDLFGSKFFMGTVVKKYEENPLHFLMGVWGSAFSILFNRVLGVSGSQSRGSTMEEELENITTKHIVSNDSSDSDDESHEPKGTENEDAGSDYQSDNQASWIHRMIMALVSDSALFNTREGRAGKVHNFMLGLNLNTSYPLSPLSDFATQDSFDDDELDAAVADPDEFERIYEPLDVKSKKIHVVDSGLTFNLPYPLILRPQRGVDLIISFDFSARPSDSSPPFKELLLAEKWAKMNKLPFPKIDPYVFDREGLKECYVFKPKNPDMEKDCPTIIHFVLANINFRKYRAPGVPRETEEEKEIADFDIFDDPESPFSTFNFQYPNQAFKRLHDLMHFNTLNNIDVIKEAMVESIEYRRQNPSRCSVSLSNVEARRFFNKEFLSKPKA

HAoSMCs = assay: Relative mRNA expression of osteogenic markers MSX2, CBFA1, ALPL in HAoSMCs; assay type: cell-based, human; details: 10 µM arachidonic acid, 24 hours, vs. control
Experimental: Primary HAoSMCs were cultured in Waymouth's MB 752/1 medium and Ham's F-12 nutrient mixture (1:1, Gibco, Life Technologies) supplemented with 10% FBS (Gibco, Life Technologies) and 100 U/ml penicillin and 100 μg/ml streptomycin. HAoSMCs were grown to confluency and used in all experiments from passages 4 to 10. Calcification was induced with 3 mM sodium phosphate buffer as calcification medium. Treatment was performed over a period of 11 days. Figs. 1C-E are diagrams indicating relative mRNA expression in HAoSMCs of MSX2 (Fig. 1C), CBFA1 (Fig. 1D) and ALPL (Fig. 1E) as scatter dot plots and as arithmetic means ± SEM (n=6; arbitrary units, a.u.). mRNA expression was determined following treatment of the HAoSMCs for 24 hours with control or with 2 mM β-glycerophosphate (Pi) without or with additional treatment with 10 μM AACOCF3. **(p<0.01), ***(p<0.001) statistically significant vs. control treated […]<0.001) statistically significant vs. HAoSMCs treated with Pi alone. […] Conditions were as above (for Fig 2), namely primary HAoSMCs were cultured in Waymouth's MB 752/1 medium and Ham's F-12 nutrient mixture (1:1, Gibco, Life Technologies) supplemented with 10% FBS (Gibco, Life Technologies) and 100 U/ml penicillin and 100 μg/ml streptomycin. HAoSMCs were grown to confluency and used in all experiments from passages 4 to 10. […]

| Molecule | GV sPLA2 % Inhibition (GV sPLA2) | GVIA iPLA2 % Inhibition (GVIA iPLA2) | GIVA cPLA2 % Inhibition (GIVA cPLA2) | GIVA cPLA2 X1(50) (GIVA cPLA2) | other results |
| --- | --- | --- | --- | --- | --- |
| CCCCCCCCCCCCCCC(=O)C(=O)O [12e] | <25% | <25% |  |  |  |
| Palmityl trifluoromethylketone [PACOCF3] |  |  |  |  | IC50 [1]: 3.8 µM |
| CCCCCCCCCCOc1ccc(OCC(=O)Cn2cc(C(=O)OC)c3cc(C(=O)O)ccc32)cc1 [CAY10502, 1-[3-(4-decoxyphenoxy)-2-oxopropyl]-3-methoxycarbonylindole-5-carboxylic acid] |  |  |  |  | IC50 (human platelets; A23187-stimulated human platelets): 0.57 µM; IC50 (human platelets; TPA-stimulated human platelets): 0.0009 µM |
| O=C(O)CCCOC(=O)C(=O)CCCc1ccc(-c2ccccc2)cc1 [17g] | <25% |  | > 95% | 0.0065 ± 0.002 |  |
| CCOC(=O)CCCOC(=O)C(=O)CCCCc1ccccc1 [compound 19] | <25% | <25% |  |  |  |
| CC(C)(C)OC(=O)CCCOC(=O)C(=O)CCCCc1ccccc1 [16c] | <25% | <25% | <25% |  |  |
| O=C(O)CCCCOC(=O)C(=O)CCCCc1ccc(-c2ccccc2)cc1 [17f] | <25% |  | > 95% | 0.000078 ± 0.00001 |  |
| O=C(O)CCCOC(=O)C(=O)CCCCc1ccc(-c2ccccc2)cc1 [17d] | <25% | <25% | >95% | 0.00068 ± 0.00007 |  |
| CCCCC/C=C\C/C=C\C/C=C\C/C=C\CCCC(=O)O [Arachidonic acid, arachidonic acid] |  |  |  |  | osteoinductive signaling (MSX2, CBFA1, ALPL relative mRNA expression) (HAoSMCs): induces osteoinductive signaling |
| CCCCCCCCCCCCCCC(O)C(=O)OCCCC(=O)O (centres unmarked) [compound 20] |  | <25% | <25% |  |  |
